Assay results as given in patent publication US20260042731A1, “(2,4-DICHLOROPHENOXY)ACETIC ACID ANALOGS” (CORTEVA AGRISCIENCE LLC, priority 2022, published 2026).
Read-outs that look alike come from different tables or passages of the source.

Key:
[1] = tested on: Amaranthus rudis (AMATA), tall water hemp; experiment: Postemergence herbicide evaluation, growth of Amaranthus rudis (AMATA); format: in vivo; conditions: Amaranthus tuberculatus, post-emergence, percent reduction in plant size relative to untreated control, read-out: Ave. AMATA; for pest or weed control at 280 g/ha: 280 g ae/ha; for pest or weed control at 560 g/ha: 560 g ae/ha
[2] = tested on: Ambrosia artemisiifolia (AMBEL), common ragweed; experiment: Postemergence herbicide evaluation, growth of Ambrosia artemisiifolia (AMBEL); format: in vivo; conditions: Ambrosia artemisiifolia, post-emergence, percent reduction in plant size relative to untreated control, read-out: AVE. AMBEL; for pest or weed control at 280 g/ha: 280 g ae/ha; for pest or weed control at 560 g/ha: 560 g ae/ha
[3] = tested on: Abutilon theophrasti (ABUTH), velvetleaf; experiment: Postemergence herbicide evaluation, growth of Abutilon theophrasti (ABUTH); format: in vivo; conditions: Abutilon theophrasti, post-emergence, percent reduction in plant size relative to untreated control, read-out: AVE. ABUTH; for pest or weed control at 280 g/ha: 280 g ae/ha; for pest or weed control at 560 g/ha: 560 g ae/ha
[4] = tested on: Chenopodium album (CHEAL), common lambsquarters; experiment: Postemergence herbicide evaluation, growth of Chenopodium album (CHEAL); format: in vivo; conditions: Chenopodium album, post-emergence, percent reduction in plant size relative to untreated control, read-out: Ave. CHEAL; for pest or weed control at 280 g/ha: 280 g ae/ha; for pest or weed control at 560 g/ha: 560 g ae/ha
[5] = tested on: glyphosate resistant Conyza canadensis (L.) (ERICA), horseweed; experiment: Postemergence herbicide evaluation, growth of Conyza canadensis (ERICA); format: in vivo; conditions: Erigeron canadensis, post-emergence, percent reduction in plant size relative to untreated control, read-out: Ave. ERICA; for pest or weed control at 280 g/ha: 280 g ae/ha; for pest or weed control at 560 g/ha: 560 g ae/ha
[6] = Volatility of compounds measured by thermogravimetric analysis (TGA); format: physicochemical
[7] = tested on: weeds (ABUTH, AMATA, AMBEL, CHEAL, ERICA); experiment: Postemergence herbicide evaluation, overall average % weed control across ABUTH, AMATA, AMBEL, CHEAL, ERICA; format: in vivo; conditions: post-emergence, average over the five weeds, read-out: Overall Ave % Weed Control; for pest or weed control at 280 g/ha: 280 g ae/ha; for pest or weed control at 560 g/ha: 560 g ae/ha

SMILES | pest or weed control at 280 g/ha ([1]; 168 h, 7 DAA) [%] | pest or weed control at 560 g/ha ([1]; 168 h, 7 DAA) [%] | pest or weed control at 280 g/ha ([1]; 336 h, 14 DAA) [%] | pest or weed control at 560 g/ha ([1]; 336 h, 14 DAA) [%] | pest or weed control at 280 g/ha ([1]; 504 h, 21 DAA) [%] | pest or weed control at 560 g/ha ([1]; 504 h, 21 DAA) [%] | pest or weed control at 280 g/ha ([2]; 168 h, 7 DAA) [%] | pest or weed control at 560 g/ha ([2]; 168 h, 7 DAA) [%] | pest or weed control at 280 g/ha ([2]; 336 h, 14 DAA) [%] | pest or weed control at 560 g/ha ([2]; 336 h, 14 DAA) [%] | pest or weed control at 280 g/ha ([2]; 504 h, 21 DAA) [%] | pest or weed control at 560 g/ha ([2]; 504 h, 21 DAA) [%] | pest or weed control at 280 g/ha ([3]; 168 h, 7 DAA) [%] | pest or weed control at 560 g/ha ([3]; 168 h, 7 DAA) [%] | pest or weed control at 280 g/ha ([3]; 336 h, 14 DAA) [%] | pest or weed control at 560 g/ha ([3]; 336 h, 14 DAA) [%] | pest or weed control at 280 g/ha ([3]; 504 h, 21 DAA) [%] | pest or weed control at 560 g/ha ([3]; 504 h, 21 DAA) [%] | pest or weed control at 280 g/ha ([4]; 168 h, 7 DAA) [%] | pest or weed control at 560 g/ha ([4]; 168 h, 7 DAA) [%] | also measured
CCO/C(CC)=N\OC(=O)COc1ccc(Cl)cc1Cl [Compound A9, Ethyl N-2-(2,4-dichlorophenoxy)acetoxypropionimidate] | 65 | 78 | 63 | 85 | 60 | 84 | 73 | 83 | 93 | 93 | 92 | 96 | 80 | 80 | 80 | 96 | 89 | 95 | 70 | 65 | pest or weed control at 280 g/ha ([4]; 336 h, 14 DAA): 83%; pest or weed control at 560 g/ha ([4]; 336 h, 14 DAA): 68%; pest or weed control at 280 g/ha ([4]; 504 h, 21 DAA): 88%; pest or weed control at 560 g/ha ([4]; 504 h, 21 DAA): 75%; pest or weed control at 280 g/ha ([5]; 168 h, 7 DAA): 70%; pest or weed control at 560 g/ha ([5]; 168 h, 7 DAA): 70%; pest or weed control at 280 g/ha ([5]; 336 h, 14 DAA): 91%; pest or weed control at 560 g/ha ([5]; 336 h, 14 DAA): 84%; pest or weed control at 280 g/ha ([5]; 504 h, 21 DAA): 99%; pest or weed control at 560 g/ha ([5]; 504 h, 21 DAA): 97%; TGA Data (rate of weight loss, volatility) [6]: 0.5 µg/min; pest or weed control at 280 g/ha ([7]; 168 h, 7 DAA): 72%; pest or weed control at 560 g/ha ([7]; 168 h, 7 DAA): 75%; pest or weed control at 280 g/ha ([7]; 336 h, 14 DAA): 82%; pest or weed control at 560 g/ha ([7]; 336 h, 14 DAA): 85%; pest or weed control at 280 g/ha ([7]; 504 h, 21 DAA): 85%; pest or weed control at 560 g/ha ([7]; 504 h, 21 DAA): 89%
O=C(COc1ccc(Cl)cc1Cl)O/N=C/c1ccc(/C=N/OC(=O)COc2ccc(Cl)cc2Cl)cc1 [Compound B3, (1,1′)-4-(-((2-(2,4-Dichlorophenoxy)acetoxy)imino)methyl)benzaldehyde-O-(2-(2,4-dichlorophenoxy)acetyl) oxime] | 60 | 70 | 58 | 68 | 58 | 68 | 23 | 48 | 45 | 50 | 45 | 53 | 33 | 60 | 13 | 58 | 12 | 58 | 65 | 68 | pest or weed control at 280 g/ha ([4]; 336 h, 14 DAA): 68%; pest or weed control at 560 g/ha ([4]; 336 h, 14 DAA): 70%; pest or weed control at 280 g/ha ([4]; 504 h, 21 DAA): 68%; pest or weed control at 560 g/ha ([4]; 504 h, 21 DAA): 70%; pest or weed control at 280 g/ha ([5]; 168 h, 7 DAA): 55%; pest or weed control at 560 g/ha ([5]; 168 h, 7 DAA): 65%; pest or weed control at 280 g/ha ([5]; 336 h, 14 DAA): 78%; pest or weed control at 560 g/ha ([5]; 336 h, 14 DAA): 80%; pest or weed control at 280 g/ha ([5]; 504 h, 21 DAA): 85%; pest or weed control at 560 g/ha ([5]; 504 h, 21 DAA): 80%; TGA Data (rate of weight loss, volatility) [6]: 0.8 µg/min; pest or weed control at 280 g/ha ([7]; 168 h, 7 DAA): 47%; pest or weed control at 560 g/ha ([7]; 168 h, 7 DAA): 62%; pest or weed control at 280 g/ha ([7]; 336 h, 14 DAA): 52%; pest or weed control at 560 g/ha ([7]; 336 h, 14 DAA): 65%; pest or weed control at 280 g/ha ([7]; 504 h, 21 DAA): 53%; pest or weed control at 560 g/ha ([7]; 504 h, 21 DAA): 66%
